Like-named read-outs stand apart in the source and are kept apart here.
What was measured:
[1] = tested on: MDA-MB-231 cells; experiment: Cell viability assay (PrestoBlue); type: cell-based; conditions: Homo sapiens, MDA-MB-231, 120 h, read-out: Antiproliferative activity (EC50) MDA-MB-231; cell viability at day 5
[2] = target: FRK/PTK5 (Homo sapiens (Human), UniProt P42685); experiment: Kinase screening assay (IC50); conditions: read-out: Target inhibition (IC50) FRK/PTK5; 10 μM ATP
[3] = target: KIT (Homo sapiens (Human), UniProt P10721); experiment: Kinase screening assay (IC50); conditions: read-out: Target inhibition (IC50) KIT; 10 μM ATP
[4] = target: mTOR (Homo sapiens (Human), UniProt P42345); experiment: Kinase screening assay (IC50); type: biochemical; conditions: 10 μM ATP; read-out: Target inhibition (IC50) mTOR
[5] = target: PDGFRa (Homo sapiens (Human), UniProt P16234); experiment: Kinase screening assay (IC50); type: biochemical; conditions: 10 μM ATP; read-out: Target inhibition (IC50) PDGFRa
PDGFRa, sequence (P16234 24-1089): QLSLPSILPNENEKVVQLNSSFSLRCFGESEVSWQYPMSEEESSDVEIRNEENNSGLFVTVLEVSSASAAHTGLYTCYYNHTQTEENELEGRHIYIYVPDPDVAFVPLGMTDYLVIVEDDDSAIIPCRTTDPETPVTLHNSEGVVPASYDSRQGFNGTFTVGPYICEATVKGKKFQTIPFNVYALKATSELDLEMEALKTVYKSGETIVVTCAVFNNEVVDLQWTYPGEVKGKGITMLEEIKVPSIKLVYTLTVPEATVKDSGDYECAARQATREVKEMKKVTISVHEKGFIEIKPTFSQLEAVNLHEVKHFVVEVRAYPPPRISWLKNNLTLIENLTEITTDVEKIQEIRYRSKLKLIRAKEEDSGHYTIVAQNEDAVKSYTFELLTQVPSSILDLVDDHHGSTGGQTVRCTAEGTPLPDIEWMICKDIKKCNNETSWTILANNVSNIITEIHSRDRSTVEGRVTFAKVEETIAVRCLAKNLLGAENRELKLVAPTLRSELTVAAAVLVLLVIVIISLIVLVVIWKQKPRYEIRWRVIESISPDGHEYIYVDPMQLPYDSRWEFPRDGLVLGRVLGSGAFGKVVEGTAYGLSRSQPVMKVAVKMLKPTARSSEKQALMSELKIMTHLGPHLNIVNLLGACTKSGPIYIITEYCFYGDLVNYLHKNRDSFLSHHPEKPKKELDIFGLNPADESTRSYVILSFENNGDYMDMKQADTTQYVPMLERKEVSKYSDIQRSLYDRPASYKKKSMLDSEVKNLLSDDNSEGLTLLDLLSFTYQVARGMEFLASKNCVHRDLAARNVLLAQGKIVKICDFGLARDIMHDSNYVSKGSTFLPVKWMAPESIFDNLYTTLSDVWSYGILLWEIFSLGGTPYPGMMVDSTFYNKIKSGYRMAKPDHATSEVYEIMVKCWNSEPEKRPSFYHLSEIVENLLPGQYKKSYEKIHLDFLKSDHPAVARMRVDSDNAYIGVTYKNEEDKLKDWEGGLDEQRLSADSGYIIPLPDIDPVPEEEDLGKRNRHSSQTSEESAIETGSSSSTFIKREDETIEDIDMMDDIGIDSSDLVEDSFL

[6] = target: BLK (Homo sapiens (Human), UniProt P51451); experiment: Kinase screening assay (IC50); conditions: read-out: Target inhibition (IC50) BLK; 10 μM ATP
BLK, sequence (P51451 whole entry): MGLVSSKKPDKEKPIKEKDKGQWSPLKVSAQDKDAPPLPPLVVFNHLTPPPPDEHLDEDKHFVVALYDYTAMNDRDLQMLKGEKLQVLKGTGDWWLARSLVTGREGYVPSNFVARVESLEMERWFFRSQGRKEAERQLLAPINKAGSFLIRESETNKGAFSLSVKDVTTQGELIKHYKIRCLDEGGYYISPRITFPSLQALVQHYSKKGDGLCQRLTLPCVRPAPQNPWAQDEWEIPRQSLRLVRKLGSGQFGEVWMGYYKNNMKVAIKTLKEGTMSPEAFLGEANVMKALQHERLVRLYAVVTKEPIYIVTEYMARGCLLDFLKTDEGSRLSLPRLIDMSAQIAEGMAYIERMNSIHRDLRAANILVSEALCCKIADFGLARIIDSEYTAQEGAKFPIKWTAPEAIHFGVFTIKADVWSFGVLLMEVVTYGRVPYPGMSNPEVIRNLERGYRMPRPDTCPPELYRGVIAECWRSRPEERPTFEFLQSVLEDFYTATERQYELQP

[7] = target: LYN (Homo sapiens (Human), UniProt P07948); experiment: Kinase screening assay (IC50); conditions: read-out: Target inhibition (IC50) LYN; 10 μM ATP
[8] = target: HCK (Homo sapiens (Human), UniProt P08631); experiment: Kinase screening assay (IC50); conditions: read-out: Target inhibition (IC50) HCK; 10 μM ATP
HCK, sequence (P08631 whole entry): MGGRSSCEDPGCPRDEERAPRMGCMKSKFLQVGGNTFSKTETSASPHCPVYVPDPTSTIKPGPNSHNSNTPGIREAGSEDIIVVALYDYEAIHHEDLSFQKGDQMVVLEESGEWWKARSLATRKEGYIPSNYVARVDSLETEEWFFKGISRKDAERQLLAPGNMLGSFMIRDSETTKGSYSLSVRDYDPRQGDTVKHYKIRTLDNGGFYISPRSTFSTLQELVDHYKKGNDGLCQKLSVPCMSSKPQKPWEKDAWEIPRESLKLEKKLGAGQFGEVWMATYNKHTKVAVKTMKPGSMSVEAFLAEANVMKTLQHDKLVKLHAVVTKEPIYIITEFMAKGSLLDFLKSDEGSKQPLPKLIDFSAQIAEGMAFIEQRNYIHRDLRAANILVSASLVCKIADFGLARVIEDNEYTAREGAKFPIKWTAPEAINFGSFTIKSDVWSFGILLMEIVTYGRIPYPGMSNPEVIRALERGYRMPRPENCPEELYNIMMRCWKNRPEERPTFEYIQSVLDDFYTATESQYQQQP

[9] = target: LCK (Homo sapiens (Human), UniProt P06239); experiment: Kinase screening assay (IC50)
[10] = target: ABL (Homo sapiens (Human), UniProt P00519); experiment: Kinase screening assay (IC50); type: biochemical; conditions: 10 μM ATP; read-out: Target inhibition (IC50) ABL
ABL, sequence (P00519 whole entry): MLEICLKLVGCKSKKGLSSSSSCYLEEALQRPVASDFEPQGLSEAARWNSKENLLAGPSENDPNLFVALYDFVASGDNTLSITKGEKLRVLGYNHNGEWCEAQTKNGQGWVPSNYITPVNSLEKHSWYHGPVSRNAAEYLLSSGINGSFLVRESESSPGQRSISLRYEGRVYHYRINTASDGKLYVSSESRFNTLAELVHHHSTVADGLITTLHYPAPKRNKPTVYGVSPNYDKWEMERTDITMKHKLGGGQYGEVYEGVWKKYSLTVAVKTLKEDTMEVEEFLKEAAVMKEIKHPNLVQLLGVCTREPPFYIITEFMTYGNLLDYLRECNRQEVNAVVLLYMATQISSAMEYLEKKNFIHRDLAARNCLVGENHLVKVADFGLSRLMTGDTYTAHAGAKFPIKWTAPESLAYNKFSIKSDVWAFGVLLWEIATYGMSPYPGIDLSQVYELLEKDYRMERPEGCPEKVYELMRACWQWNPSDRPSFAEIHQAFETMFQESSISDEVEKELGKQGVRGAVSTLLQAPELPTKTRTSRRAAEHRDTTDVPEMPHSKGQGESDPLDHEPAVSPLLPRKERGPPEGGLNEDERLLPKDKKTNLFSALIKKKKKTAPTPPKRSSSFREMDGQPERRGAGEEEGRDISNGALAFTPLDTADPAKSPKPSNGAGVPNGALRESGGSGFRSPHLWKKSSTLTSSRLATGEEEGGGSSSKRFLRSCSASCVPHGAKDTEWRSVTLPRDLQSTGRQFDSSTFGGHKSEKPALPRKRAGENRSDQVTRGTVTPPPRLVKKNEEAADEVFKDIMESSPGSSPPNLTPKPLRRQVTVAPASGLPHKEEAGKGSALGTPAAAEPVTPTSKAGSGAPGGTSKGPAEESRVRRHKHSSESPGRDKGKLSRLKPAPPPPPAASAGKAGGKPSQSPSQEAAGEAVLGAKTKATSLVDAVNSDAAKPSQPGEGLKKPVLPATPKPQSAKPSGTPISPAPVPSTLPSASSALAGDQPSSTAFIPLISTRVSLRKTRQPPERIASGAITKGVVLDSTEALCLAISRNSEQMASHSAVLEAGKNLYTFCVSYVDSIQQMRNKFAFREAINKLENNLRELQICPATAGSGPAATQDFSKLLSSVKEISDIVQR

[11] = target: RET (Homo sapiens (Human), UniProt P07949); experiment: Kinase screening assay (IC50); conditions: read-out: Target inhibition (IC50) RET; 10 μM ATP
RET, sequence (P07949 29-1114): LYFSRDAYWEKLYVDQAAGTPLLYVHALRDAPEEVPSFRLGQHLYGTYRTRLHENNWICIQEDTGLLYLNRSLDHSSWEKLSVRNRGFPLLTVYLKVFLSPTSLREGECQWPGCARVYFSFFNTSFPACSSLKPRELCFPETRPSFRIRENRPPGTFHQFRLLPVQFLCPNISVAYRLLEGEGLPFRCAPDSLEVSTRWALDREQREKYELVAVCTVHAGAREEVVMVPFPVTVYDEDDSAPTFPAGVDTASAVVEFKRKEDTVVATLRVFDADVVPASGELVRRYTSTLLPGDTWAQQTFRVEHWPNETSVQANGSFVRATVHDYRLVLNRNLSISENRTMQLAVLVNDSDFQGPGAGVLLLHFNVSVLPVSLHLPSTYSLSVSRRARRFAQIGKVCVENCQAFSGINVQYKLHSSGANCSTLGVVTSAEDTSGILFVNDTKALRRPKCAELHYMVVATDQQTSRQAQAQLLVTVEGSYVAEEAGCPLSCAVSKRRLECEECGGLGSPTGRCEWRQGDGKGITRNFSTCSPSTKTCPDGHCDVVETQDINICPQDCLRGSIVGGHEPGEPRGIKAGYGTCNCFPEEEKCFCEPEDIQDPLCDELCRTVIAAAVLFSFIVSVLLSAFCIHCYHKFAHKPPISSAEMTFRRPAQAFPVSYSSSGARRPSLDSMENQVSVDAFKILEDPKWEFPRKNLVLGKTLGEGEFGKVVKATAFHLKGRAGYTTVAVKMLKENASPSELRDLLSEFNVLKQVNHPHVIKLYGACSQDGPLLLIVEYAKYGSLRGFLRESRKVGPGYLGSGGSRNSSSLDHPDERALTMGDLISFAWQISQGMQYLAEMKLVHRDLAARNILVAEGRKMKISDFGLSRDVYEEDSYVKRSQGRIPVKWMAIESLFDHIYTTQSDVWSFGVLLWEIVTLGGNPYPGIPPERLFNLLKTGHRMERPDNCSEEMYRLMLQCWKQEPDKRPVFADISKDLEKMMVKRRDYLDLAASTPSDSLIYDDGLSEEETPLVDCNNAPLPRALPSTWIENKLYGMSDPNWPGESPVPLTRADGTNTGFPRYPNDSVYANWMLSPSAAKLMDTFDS

[12] = target: FGR (Homo sapiens (Human), UniProt P09769); experiment: Kinase screening assay (IC50)
FGR, sequence (P09769 whole entry): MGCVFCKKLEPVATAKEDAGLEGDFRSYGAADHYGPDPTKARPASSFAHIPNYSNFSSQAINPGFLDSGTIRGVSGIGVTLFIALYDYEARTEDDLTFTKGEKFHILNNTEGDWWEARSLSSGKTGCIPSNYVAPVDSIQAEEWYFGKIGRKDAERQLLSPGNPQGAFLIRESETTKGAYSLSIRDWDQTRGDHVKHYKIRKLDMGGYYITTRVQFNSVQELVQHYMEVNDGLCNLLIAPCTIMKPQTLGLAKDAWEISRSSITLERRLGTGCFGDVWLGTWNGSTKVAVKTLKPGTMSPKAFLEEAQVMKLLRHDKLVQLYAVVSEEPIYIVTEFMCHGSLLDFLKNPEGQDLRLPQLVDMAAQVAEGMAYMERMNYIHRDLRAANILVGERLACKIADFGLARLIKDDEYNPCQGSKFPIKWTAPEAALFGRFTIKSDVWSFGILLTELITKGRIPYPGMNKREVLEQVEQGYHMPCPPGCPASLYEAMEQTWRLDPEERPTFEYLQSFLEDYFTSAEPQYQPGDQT

[13] = tested on: MCF7 cells; experiment: Cell viability assay (PrestoBlue); type: cell-based; conditions: Homo sapiens, MCF7, 120 h; cell viability at day 5; read-out: Antiproliferative activity (EC50) MCF7
[14] = tested on: SYF fibroblasts (deficient for Src, Yes, and Fyn); experiment: Cell viability assay (PrestoBlue); type: cell-based, murine; conditions: Mus musculus, Fibroblast, 120 h; cell viability at day 5; read-out: Antiproliferative activity (EC50) SYF (−/− Src)
[15] = read-out: Target inhibition (IC50) LCK, 10 μM ATP

SMILES | EC50 [1] [µM] | IC50 [3] [µM] | IC50 [4] [µM] | IC50 [5] [µM] | EC50 [13] [µM] | also measured
CN(C)C1CCN(CCn2nc(-c3ccc(CC#N)cc3)c3c(N)ncnc32)CC1 [Compound 5-100, 2-[4-[4-amino-1-[2-[4-(dimethylamino)-1-piperidyl]ethyl]pyrazolo[3,4-d]pyrimidin-3-yl]phenyl]acetonitrile] | > 10 |  |  |  |  | 
COc1cc(-c2nn(CCN3CCCC(N(C)C)C3)c3ncnc(N)c23)ccc1NC(=O)OC(C)(C)C (stereo not shown) [Compound 5-103, tert-butyl N-[4-[4-amino-1-[2-[3-(dimethylamino)-1-piperidyl]ethyl]pyrazolo[3,4-d]pyrimidin-3-yl]-2-methoxy-phenyl]carbamate] | 1 to 10 |  |  |  |  | 
Cc1ccc(-c2nn(CCN3CCN(C)CC3)c3ncnc(N)c23)cc1 [Compound 103] |  | > 1 | > 1 | > 1 |  | IC50 [2]: > 1 µM; IC50 [6]: > 1 µM; IC50 [7]: > 1 µM; IC50 [8]: > 1 µM; IC50 [9, 15]: > 1 µM; IC50 [10]: > 1 µM; IC50 [11]: > 1 µM
Cc1ccc(-c2nn(CCN3CCN(CCN(C)C)CC3)c3ncnc(N)c23)cc1 [Compound 105, 1-[2-[4-(2-dimethylaminoethyl)piperazin-1-yl]ethyl]-3-(p-tolyl)pyrazolo[3,4-d]pyrimidin-4-amine] |  | > 1 | > 1 | > 1 |  | IC50 [2]: > 1 µM; IC50 [6]: > 1 µM; IC50 [8]: > 1 µM; IC50 [9, 15]: > 1 µM; IC50 [10]: > 1 µM; IC50 [11]: > 1 µM
Cc1ccc(-c2nn(CCN3CCC(CN(C)C)CC3)c3ncnc(N)c23)cc1 [Compound 112, 1-[2-[4-(dimethylaminomethyl)-1-piperidyl]ethyl]-3-(p-tolyl)pyrazolo[3,4-d]pyrimidin-4-amine] |  | > 1 | > 1 | > 1 |  | IC50 [2]: > 1 µM; IC50 [6]: > 1 µM; IC50 [7]: > 1 µM; IC50 [8]: > 1 µM; IC50 [9, 15]: > 1 µM; IC50 [11]: > 1 µM
Cc1ccc(-c2nn(CCN3CCC(CCN(C)C)CC3)c3ncnc(N)c23)cc1 [Compound 113, 1-[2-[4-(2-dimethylaminoethyl)-1-piperidyl]ethyl]-3-(p-tolyl)pyrazolo[3,4-d]pyrimidin-4-amine] |  | > 1 | > 1 | > 1 |  | IC50 [2]: > 1 µM; IC50 [7]: > 1 µM; IC50 [12]: 0.1 to 1 µM; IC50 [8]: > 1 µM; IC50 [9, 15]: > 1 µM; IC50 [11]: > 1 µM
CN(C)CC1CCN(CCn2nc(-c3cnc4[nH]ccc4c3)c3c(N)ncnc32)CC1 [Compound 221, 1-[2-[4-(dimethylaminomethyl)-1-piperidyl]ethyl]-3-(1H-pyrrolo[2,3-b]pyridin-5-yl)pyrazolo[3,4-d]pyrimidin-4-amine] |  | > 1 | > 1 | > 1 |  | 
CN(C)CC1CCN(CCn2nc(-c3ccc4ncccc4c3)c3c(N)ncnc32)CC1 [Compound 223, 1-[2-[4-(dimethylaminomethyl)-1-piperidyl]ethyl]-3-(6-quinolyl)pyrazolo[3,4-d]pyrimidin-4-amine] |  |  |  |  | > 10 | 
COc1ccc(-c2nn(CCN3CCC(CN(C)C)CC3)c3ncnc(N)c23)cc1OC [Compound 224, 3-(3,4-dimethoxyphenyl)-1-[2-[4-(dimethylaminomethyl)-1-piperidyl]ethyl]pyrazolo[3,4-d]pyrimidin-4-amine] |  |  |  |  | > 10 | 
CN(C)CC1CCN(CCn2nc(-c3cccc(O)c3)c3c(N)ncnc32)CC1 [Compound 225, 3-[4-amino-1-[2-[4-(dimethylaminomethyl)-1-piperidyl]ethyl]pyrazolo[3,4-d]pyrimidin-3-yl]phenol] |  |  |  |  | > 10 | 
CN(C)CC1CCN(CCn2nc(-c3ccoc3)c3c(N)ncnc32)CC1 [Compound 226, 1-[2-[4-(dimethylaminomethyl)-1-piperidyl]ethyl]-3-(3-furyl)pyrazolo[3,4-d]pyrimidin-4-amine] |  |  |  |  | > 10 | 
CN(C)CC1CCN(CCn2nc(C#Cc3ccccc3)c3c(N)ncnc32)CC1 [Compound 230, 1-[2-[4-(dimethylaminomethyl)-1-piperidyl]ethyl]-3-(2-phenylethynyl)pyrazolo[3,4-d]pyrimidin-4-amine] |  |  |  |  | > 10 | 
CN(C)CC1CCN(CCn2nc(I)c3c(N)ncnc32)CC1 [Compound 232, 1-[2-[4 (dimethylaminomethyl)-1-piperidyl]ethyl]-3-iodo-pyrazolo[3,4-d]pyrimidin-4-amine] |  |  |  |  | > 10 | 
CN(C)C1CCN(CCn2nc(-c3cnc4[nH]ccc4c3)c3c(N)ncnc32)CC1 [Compound 402, 1-[2-[4-(dimethylamino)-1-piperidyl]ethyl]-3-(1H-pyrrolo[2,3-b]pyridin-5-yl)pyrazolo[3,4-d]pyrimidin-4-amine] |  | > 1 | > 1 | > 1 |  | IC50 [8]: > 1 µM
COc1cc(-c2nn(CCN3CCC(N(C)C)CC3)c3ncnc(N)c23)ccc1NC(=O)CC(C)(C)C [Compound 526, N-[4-[4-amino-1-[2-[4-(dimethylamino)-1-piperidyl]ethyl]pyrazolo[3,4-d]pyrimidin-3-yl]-2-methoxy-phenyl]-3,3-demethyl-butanamide] |  | > 1 | > 1 | > 1 |  | IC50 [2]: > 1 µM; IC50 [12]: 0.01 to 0.1 µM; IC50 [9]: 0.01 to 0.1 µM; IC50 [10]: > 1 µM; IC50 [11]: > 1 µM
COc1cc(-c2nn(CCN3CCC(N(C)C)CC3)c3ncnc(N)c23)ccc1NC(=O)Cc1ccccc1 [Compound 530, N-[4-[4-amino-1-[2-[4-(dimethylamino)-1-piperidyl]ethyl]pyrazolo[3,4-d]pyrimidin-3-yl]-2-methoxy-phenyl]-2-phenyl-acetamide] | > 10 |  |  |  | > 10 | EC50 [14]: > 10 µM
COc1cc(-c2nn(CCN3CCC(N(C)C)CC3)c3ncnc(N)c23)ccc1NC(=O)CCc1ccccc1 [Compound 531, N-[4-[4-amino-1-[2-[4-(dimethylamino)-1-piperidyl]ethyl]pyrazolo[3,4-d]pyrimidin-3-yl]-2-methoxy-phenyl]-3-phenyl-propanamide] | > 10 |  |  |  | 1 to 10 | EC50 [14]: > 10 µM
COc1cc(-c2nn(CCN3CCC(N(C)C)CC3)c3ncnc(N)c23)ccc1N [Compound 532, 3-(4-amino-3-methoxy-phenyl)-1-[2-[4-(dimethylamino)-1-piperidyl]ethyl]pyrazolo[3,4-d]pyrimidin-4-amine] | 1 to 10 |  |  |  | 1 to 10 | EC50 [14]: > 10 µM
COc1cc(-c2nn(CCN3CCC(N(C)C)CC3)c3ncnc(N)c23)ccc1NC(=O)NC(C)(C)C [Compound 540, 1-[4-[4-amino-1-[2-[4-(dimethylamino)-1-piperidyl]ethyl]pyrazolo[3,4-d]pyrimidin-3-yl]-2-methoxy-phenyl]-3-tert-butyl-urea] |  | > 1 | > 1 | > 1 |  | IC50 [2]: > 1 µM; IC50 [12]: 0.01 to 0.1 µM; IC50 [9]: 0.01 to 0.1 µM; IC50 [11]: > 1 µM
CN(C)C1CCN(CCn2nc(-c3ccc(NC(=O)OC(C)(C)C)nc3)c3c(N)ncnc32)CC1 [Compound 549, tert-butyl N-[5-[4-amino-1-[2-[4-(dimethylamino)-1-piperidyl]ethyl]pyrazolo[3,4-d]pyrimidin-3-yl]-2-pyridyl]carbamate] | > 10 |  |  |  | > 10 | 
COc1ccc(-c2nn(CCN3CCC(N(C)C)CC3)c3ncnc(N)c23)cc1NC(=O)OC(C)(C)C [Compound 559, tert-butyl N-[5-[4-amino-1-[2-[4-(dimethylamino)-1-piperidyl]ethyl]pyrazolo[3,4-d]pyrimidin-3-yl]-2-methoxy-phenyl]carbamate] | > 10 |  |  |  | > 10 | 
COc1cc(-c2nn(CCN3CCC(OC)CC3)c3ncnc(N)c23)ccc1NC(=O)OC(C)(C)C [Compound 593, tert-butyl N-[4-[4-amino-1-[2-(4-methoxy-1-piperidyl)ethyl]pyrazolo[3,4-d]pyrimidin-3-yl]-2-methoxy-phenyl]carbamate] | 1 to 10 |  |  |  |  | 
COc1cc(-c2ccn(CCN3CCC(N(C)C)CC3)n2)ccc1NC(=O)OC(C)(C)C [Compound 597, tert-butyl N-[4-[1-[2-[4-(dimethylamino)-1-piperidyl]ethyl]pyrazol-3-yl]-2-methoxy-phenyl]carbamate] | > 10 |  |  |  |  | 

Reference: patent US10294227B2, “Compounds” (UNIVERSITY COURT OF THE UNIVERSITY OF EDINBURGH, priority 2015, dated 2019)
